The source of these data is patent US20140057915A1, “KINASE INHIBITORS” (TOPIVERT PHARMA LIMITED, priority 2012, published 2014).

One data set concerns the target cSrc (Homo sapiens, UniProt P12931). As to the kind of experiment: c-Src enzyme inhibition (FRET). As to conditions: Table 4a1. It is filed as biochemical. The method in brief: (§1)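 2 hr RT enzyme + cpd (added solns 4/0.4/0.04/0.004 μg/mL); + FRET peptide (8 μM soln) + ATP soln (c-Src 800 μM, Syk 60 μM), 1 hr; protease development 1 hr; read donor/acceptor emission ratio.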

The next data set addresses Syk (Homo sapiens, UniProt P43405). As to the kind of experiment: Syk enzyme inhibition (FRET). It is filed as biochemical. The note with it: Table 4a1. In outline: as §1
A further data set concerns the target GSK3α (Homo sapiens, UniProt P49840). The data set is described as follows: GSK 3α enzyme inhibition (FRET), Method 1. It is filed as biochemical. The note with it: Table 4a1. The method in brief:
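Inhibition is scored from phosphorylation of a dual-labelled synthetic peptide, measured by FRET after protease cleavage of unphosphorylated substrate. Incubations are 2 hr compound with enzyme, then 1 hr kinase reaction.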

For data set [1], the system named is TNFα release, d-U937 cells. As to the kind of experiment: LPS-induced TNFα release in d-U937 cells. It is filed as cell-based. The note with it: Homo sapiens, dU937; relative to 10 μg/mL BIRB796; Table 4c1; read-out: LPS Induced Release of Cytokine in d-U937 Cells, TNFα REC50. In outline:
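Sandwich ELISA quantifies cytokine in supernatants after 4 hr LPS challenge (0.1 μg/mL) of PMA-differentiated (100 ng/mL, 48–72 hr) U937 macrophages given compound 2 hr beforehand. REC50 derived from concentration-response curve, inhibition calculated relative to vehicle.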

Data set [2] deals with IL-8 release, d-U937 cells. As to the kind of experiment: LPS-induced IL-8 release in d-U937 cells. In kind it is cell-based. The note with it: Homo sapiens, dU937; Table 4c1; read-out: LPS Induced Release of Cytokine in d-U937 Cells, IL-8 IC50. In outline: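 IL-8 release after a 4 hr challenge with LPS (0.1 μg/mL, E. coli 0111:B4) following a 2 hr compound pretreatment. Cells were human U937 monocytes differentiated to macrophage-type with PMA 100 ng/mL for 48–72 hr. Relative 50% effective concentration derived from concentration–response data.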

Data set [3] relates to ICAM-1 expression, BEAS2B cells. The data set is described as follows: Poly I:C-induced ICAM-1 expression in BEAS2B cells. It is filed as cell-based. The note with it: Homo sapiens, BEAS-2B; read-out: Poly IC induced ICAM1 in BEAS2B, IC50. The method in brief: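 Cell-based ELISA for surface ICAM-1 in human BEAS2B cells 18 h after transfection with the RNA-virus mimic poly I:C (1 μg/mL, with Oligofectamine), compounds added 2 h beforehand. OD450–655 divided by Crystal Violet OD595 per well; percent inhibition relative to vehicle.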

The test system of a further data set is d-U937 cells. As to the kind of experiment: Cell viability: MTT assay. The note with it: 1 μg/mL. It is filed as cell-based, human. The method in brief: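 MTT reduction (1 h, DMSO solubilisation, A550) measured after compound treatment at 1 or 10 μg/mL of differentiated U937 cells for 4 h (5% FCS RPMI1640) or 24 h (10% FCS). Percentage viability loss computed relative to 0.5% DMSO vehicle, with increases tabulated as negative values.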
On the technique in general: Tetrazolium dyes change colour on reduction, which living cells bring about.

SMILES strings stand for the structures. pEC50, pIC50: −log10 of the molar value. Bounds are passed on as bounds.

cSrc, sequence (P12931 whole entry): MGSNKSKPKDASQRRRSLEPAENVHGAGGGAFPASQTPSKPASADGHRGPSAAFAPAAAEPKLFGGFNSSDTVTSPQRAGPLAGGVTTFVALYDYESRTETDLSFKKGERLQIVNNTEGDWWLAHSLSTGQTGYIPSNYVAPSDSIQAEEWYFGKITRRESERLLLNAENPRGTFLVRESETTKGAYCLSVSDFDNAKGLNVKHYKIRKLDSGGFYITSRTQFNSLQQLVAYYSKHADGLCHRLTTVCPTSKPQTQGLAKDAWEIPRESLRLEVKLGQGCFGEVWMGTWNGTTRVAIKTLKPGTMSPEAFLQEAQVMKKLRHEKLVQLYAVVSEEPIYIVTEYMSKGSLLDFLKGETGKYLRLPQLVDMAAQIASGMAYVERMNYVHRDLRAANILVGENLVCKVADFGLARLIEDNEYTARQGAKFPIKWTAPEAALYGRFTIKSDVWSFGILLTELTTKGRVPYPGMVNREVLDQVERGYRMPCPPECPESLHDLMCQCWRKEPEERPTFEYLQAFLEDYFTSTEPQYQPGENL
GSK3α, sequence (P49840 whole entry): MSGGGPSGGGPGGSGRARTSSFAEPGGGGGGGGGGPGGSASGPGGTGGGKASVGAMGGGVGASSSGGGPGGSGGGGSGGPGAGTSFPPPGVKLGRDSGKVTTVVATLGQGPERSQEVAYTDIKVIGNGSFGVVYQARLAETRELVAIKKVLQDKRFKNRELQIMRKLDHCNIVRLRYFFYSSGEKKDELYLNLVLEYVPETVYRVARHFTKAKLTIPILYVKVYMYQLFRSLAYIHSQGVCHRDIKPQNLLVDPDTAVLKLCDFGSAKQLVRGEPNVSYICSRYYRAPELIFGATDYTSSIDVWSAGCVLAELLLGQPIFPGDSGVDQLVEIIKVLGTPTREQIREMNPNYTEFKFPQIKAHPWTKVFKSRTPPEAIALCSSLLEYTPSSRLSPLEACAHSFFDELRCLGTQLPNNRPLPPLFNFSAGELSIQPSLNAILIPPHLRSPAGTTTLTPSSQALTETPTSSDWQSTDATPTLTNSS

A word on the pIC50: it is the negative decadic logarithm of the IC50, by convention in mol/L. For `COc1ccc(-n2nc(C(C)C)cc2NC(=O)Nc2ccc(Oc3ccnc(Nc4cc(C(=O)NCCO)ccc4OC)n3)c3ccccc23)cc1` [Example 34, N-(2-hydroxyethyl)-3-((4-((4-(3-(3-isopropyl-1-(4-methoxyphenyl)-1H-pyrazol-5-yl)ureido)naphthalen-1-yl)oxy)pyrimidin-2-yl)amino)-4-methoxybenzamide], the pIC50 was 8.70 at cSrc; 7.07 on Syk; < 4.85 against GSK3α; 7.13 in data set [2]; 7.10 in data set [3]. Besides, the pEC50 in data set [1] is 7.85. For the same compound, the “Cell viability at time point in d-U937 cells, 4 h” value in the data set with d-U937 cells is “+ve (−ve and +ve indicate that the value is below and above respectively, the no significant effect threshold, defined as 30% inhibition at 1 μg/mL at the time point indicated)”. Moreover, in the data set with d-U937 cells, the “Cell viability at time point in d-U937 cells, 24 h” value (“Cell viability at time point … 24 h” for short) is “−ve (−ve and +ve indicate that the value is below and above respectively, the no significant effect threshold, defined as 30% inhibition at 1 μg/mL at the time point indicated)”.

For the compound `COCCNC(=O)c1cc(Nc2nccc(Oc3ccc(NC(=O)Nc4cc(C(C)(C)C)nn4-c4ccc(C)cc4)c4ccccc34)n2)cc(OC)c1` [Example 67, 3-((4-((4-(3-(3-(tert-butyl)-1-(p-tolyl)-1H-pyrazol-5-yl)ureido)naphthalen-1-yl)oxy)pyrimidin-2-yl)amino)-5-methoxy-N-(2-methoxyethyl)benzamide], the pIC50 at cSrc is 8.40; at Syk, 7.40; at GSK3α it was 6.34; in data set [2], 9.00; in data set [3] it was 6.85. In addition, the pEC50 in data set [1] is 10.00. In addition, in the data set on d-U937 cells, the “Cell viability at time point in d-U937 cells, 4 h” value was “−ve (−ve and +ve indicate that the value is below and above respectively, the no significant effect threshold, defined as 30% inhibition at 1 μg/mL at the time point indicated)”. In the data set on d-U937 cells, the “Cell viability at time point … 24 h” value was “−ve (−ve and +ve indicate that the value is below and above respectively, the no significant effect threshold, defined as 30% inhibition at 1 μg/mL at the time point indicated)”.

As to `COc1cc(Nc2nccc(Oc3ccc(NC(=O)Nc4cc(C(C)(C)C)nn4-c4ccc(C)cc4)c4ccccc34)n2)cc(C(=O)NCCO)c1` [Example 64, 3-((4-((4-(3-(3-(tert-butyl)-1-(p-tolyl)-1H-pyrazol-5-yl)ureido)naphthalen-1-yl)oxy)pyrimidin-2-yl)amino)-N-(2-hydroxyethyl)-5-methoxybenzamide], the pIC50 on cSrc is 8.70; at Syk it was 7.89; against GSK3α, 6.91; in data set [2], 9.10; in data set [3], 9.00. The pEC50 in data set [1] was 9.40. Moreover, the “Cell viability at time point in d-U937 cells, 4 h” value with d-U937 cells was “−ve (−ve and +ve indicate that the value is below and above respectively, the no significant effect threshold, defined as 30% inhibition at 1 μg/mL at the time point indicated)”. In addition, the “Cell viability at time point … 24 h” value with d-U937 cells was “−ve (−ve and +ve indicate that the value is below and above respectively, the no significant effect threshold, defined as 30% inhibition at 1 μg/mL at the time point indicated)”.

As to `Cc1ccc(-n2nc(C(C)(C)C)cc2NC(=O)Nc2ccc(Oc3ccnc(Nc4cccc(C(=O)N(C)C)c4)n3)c3ccccc23)cc1` [Example 26, 3-((4-((4-(3-(3-(tert-butyl)-1-(p-tolyl)-1H-pyrazol-5-yl)ureido)naphthalen-1-yl)oxy)pyrimidin-2-yl)amino)-N,N-dimethylbenzamide], the pIC50 is 8.22 at cSrc; 7.85 against Syk; 6.41 against GSK3α; 8.64 in data set [2]; 7.95 in data set [3]. In addition, the pEC50 in data set [1] was 9.30. The “Cell viability at time point in d-U937 cells, 4 h” value in the data set on d-U937 cells was “−ve (−ve and +ve indicate that the value is below and above respectively, the no significant effect threshold, defined as 30% inhibition at 1 μg/mL at the time point indicated)”. Further, the “Cell viability at time point … 24 h” value in the data set on d-U937 cells is “−ve (−ve and +ve indicate that the value is below and above respectively, the no significant effect threshold, defined as 30% inhibition at 1 μg/mL at the time point indicated)”.

Consider `COc1ccc(-n2nc(C(C)(C)C)cc2NC(=O)Nc2ccc(Oc3ccnc(Nc4cc(OC)cc(C(N)=O)c4)n3)c3ccccc23)cc1` [Example 41, 3-((4-((4-(3-(3-(tert-butyl)-1-(4-methoxyphenyl)-1H-pyrazol-5-yl)ureido)naphthalen-1-yl)oxy)pyrimidin-2-yl)amino)-5-methoxybenzamide], for which the negative-log IC50 (pIC50) against cSrc was 8.00; at Syk it was 7.82; on GSK3α, 5.92; in data set [2], 9.40; in data set [3], 8.70. In data set [1], the pEC50 was 9.40. Moreover, the “Cell viability at time point in d-U937 cells, 4 h” value in the data set on d-U937 cells is “−ve (−ve and +ve indicate that the value is below and above respectively, the no significant effect threshold, defined as 30% inhibition at 1 μg/mL at the time point indicated)”. The “Cell viability at time point … 24 h” value in the data set with d-U937 cells is “−ve (−ve and +ve indicate that the value is below and above respectively, the no significant effect threshold, defined as 30% inhibition at 1 μg/mL at the time point indicated)”.

`COc1cc(Nc2nccc(Oc3ccc(NC(=O)Nc4cc(C(C)C)nn4-c4ccc(C)cc4)c4ccccc34)n2)cc(C(=O)N(C)CCN2CCOCC2)c1` [Example 68, 3-((4-((4-(3-(3-isopropyl-1-(p-tolyl)-1H-pyrazol-5-yl)ureido)naphthalen-1-yl)oxy)pyrimidin-2-yl)amino)-5-methoxy-N-methyl-N-(2-morpholinoethyl)benzamide]: the pIC50 at cSrc was > 9.00; on Syk, 8.70; on GSK3α, 6.95; in data set [2], 9.30; in data set [3], 8.41. Besides, the pEC50 in data set [1] is 9.70. Moreover, in the data set with d-U937 cells, the “Cell viability at time point in d-U937 cells, 4 h” value was “−ve (−ve and +ve indicate that the value is below and above respectively, the no significant effect threshold, defined as 30% inhibition at 1 μg/mL at the time point indicated)”. Besides, the “Cell viability at time point … 24 h” value in the data set with d-U937 cells is “−ve (−ve and +ve indicate that the value is below and above respectively, the no significant effect threshold, defined as 30% inhibition at 1 μg/mL at the time point indicated)”.

With `COc1ccc(-n2nc(C(C)(C)C)cc2NC(=O)Nc2ccc(Oc3ccnc(Nc4cccc(C(=O)NCCN5CCOCC5)c4)n3)c3ccccc23)cc1` [Example 21, 3-((4-((4-(3-(3-(tert-butyl)-1-(4-methoxyphenyl)-1H-pyrazol-5-yl)ureido)naphthalen-1-yl)oxy)pyrimidin-2-yl)amino)-N-(2-morpholinoethyl)benzamide], the pIC50 on cSrc is 8.30; against Syk it was 7.85; on GSK3α, 6.45; in data set [2] it was 8.72; in data set [3], 9.10. The pEC50 in data set [1] is 8.89. The “Cell viability at time point in d-U937 cells, 4 h” value in the data set on d-U937 cells is “−ve (−ve and +ve indicate that the value is below and above respectively, the no significant effect threshold, defined as 30% inhibition at 1 μg/mL at the time point indicated)”. Further, the “Cell viability at time point … 24 h” value in the data set on d-U937 cells is “−ve (−ve and +ve indicate that the value is below and above respectively, the no significant effect threshold, defined as 30% inhibition at 1 μg/mL at the time point indicated)”.
